Data published in article PMC10447463, “Data-mining unveils structure–property–activity correlation of viral infectivity enhancing self-assembling peptides” (Nature Communications, 2023).
Like-named read-outs stand apart in the source and are kept apart here.

Columns and labels:
[1] = format: physicochemical; details: for ThT Cat. / ThT-Fluorescence (categorical): ThT-active if fluorescence at least twice the control; for Rel. ThT: n-fold ThT fluorescence vs control (PBS, 10% DMSO), 4 µL 1 mg/mL fibrils + 20 µL 50 µM ThT, 15 min RT, ex 440 / em 488 nm, triplicate
In short: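 Preformed peptide fibrils (1 mg/mL) mixed with 50 µM ThT in PBS, 15 min at RT, fluorescence ex 440/em 488 nm versus PBS blank, triplicates. Zeta potential: peptides at 1 mg/mL in PBS pH 7.4, aged 1 d at RT, diluted in 1 mM KCl, Smoluchowski from electrophoretic mobility.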

[2] = format: physicochemical; set-up: key to Fibril / Fibril Formation / TEM 2cat / Fibril: 1 = fibrils present; 0 non-fibrillar structures; details: for Fibril / Fibril Formation: 1 mg/mL, uranyl acetate stain, qualitative
[3] = Conversion rate (CR) assay with fluorescamine; format: physicochemical; set-up: key to CR: % = 100−100×filtrate/original fluorescence intensity
Protocol: For ATR FT–IR spectroscopy measurements, 200 µL of the respective 1 mg/mL PNF solution was lyophilized and the resulting powder used for measurement. All spectra were recorded on a Bruker Tensor 27 spectrometer with a diamond crystal as ATR element (PIKE MiracleTM, spectral resolution 2 cm^-1). Every sample was measured with 64 scans. Data were analyzed with OriginLab software and calculation of β–sheet content was conducted according to a previous report. TEM. For TEM measurements 5 µL of PNF fibrils (1 mg/mL) were placed on copper grids coated with carbon and formvar layer (300 mesh, Plano GmbH). After 10 min incubation time, the grids were staining with 4% uranyl acetate solution for 2.5 min and washed with water. Measurements were performed on a Jeol 1400 electron microscope with 120 kV acceleration voltage. CR Assay. For the determination of the amount of peptide monomer converting into nanostructures the amine reactive dye fluorescamine was used analogous to a previous reported protocol. Briefly, 100 µL of the preformed PNF solution was centrifuged in a Vivaspin 500 tube (3 kDa MWCO) to separate fibers from free peptide monomer (16200 x g, 4 °C, 45 min). The filtrate and 100 μL of the non-filtered PNF sample were lyophilized and dissolved in 30 μL DMSO. 10 μL of the filtrate and non-filtered DMSO samples were submitted in a black UV Star® 384 microliter well–plates (Greiner bio–one) and 3 μL of the fluorescamine solution (10 mg/mL, DMSO) was added to measure the fluorescence enhancement. After 20 min of incubation at RT, fluorescence was recorded on an Infinite® M1000 PRO microplate reader (Tecan) at λem = 470 nm upon excitation at λex = 365 nm with 10 nm bandwidths and multiple reads per well (3×3). Measurements were repeated in triplicates and averaged with standard deviation. All values were calculated as n-fold fluorescence enhancement (DMSO only as a reference was set to 1). The conversion rate CR was defined according to the equation Eq. (3).3 CR=100−100×fluorescenceintensityfiltrate/fluorescenceintensityoriginal[%]

[4] = ThT fluorescence category, 1 if Rel. ThT >2
[5] = Fig S10 panel D, fibril category by TEM
[6] = FigS12 panel A, fibril category by TEM
[7] = TEM, 1 = fibrils present, 0 = non-fibrillar
[8] = TEM, 1 = fibrils present, 0 = non-fibrillar structures
[9] = Fig. S7 panel B, conversion rate, fluorescamine assay
[10] = conversion rate, fluorescamine assay
[11] = conversion of monomer to nanostructures, 3 kDa MWCO filtration, fluorescamine, ex 365 / em 470 nm, triplicate
[12] = category: fibrils present or non-fibrillar

Substance	Tht category (> 2 to blank = +) ([1]; Fig S10 panel D)	ThT Cat. ([1]; Fig S10 panel E)	Tht category (> 2 to blank = +) ([1]; FigS12 panel A)	ThT Cat, ([1]; FigS12 panel B)	ThT Cat, ([1]; ThT category, 1 if Rel. ThT >2)	ThT Cat. [1, 4]	ThT Cat. / ThT-Fluorescence (categorical) [1]	TEM 2cat [2, 5]	Fibril ([2]; Fig S10 panel E)	TEM 2cat [2, 6]	Fibril ([2]; FigS12 panel B, TEM)	Fibril / Fibril Formation ([2]; TEM)	Fibril [2, 7]	Fibril [2, 8]	CR / % [3, 9]	CR [3, 10]	ThT Cat. ([1]; ThT category, 1 if Rel. ThT >2)	TEM 2cat ([2]; Fig S10 panel D)	TEM 2cat [2, 12]	also measured
CKAKAQA	0 (ThT-inactive (N-Fold <2))	0 (ThT-inactive (N-Fold <2))	0 (ThT-inactive (N-Fold <2))	0 (ThT-inactive (N-Fold <2))	0 (ThT-inactive (N-Fold <2))	0 (ThT-inactive (N-Fold <2))	0 (ThT-inactive (N-Fold <2))	0	0	0	0	0	0	0	44%	44	–	–	–	–
CKAKAQANM	0 (ThT-inactive (N-Fold <2))	0 (ThT-inactive (N-Fold <2))	0 (ThT-inactive (N-Fold <2))	0 (ThT-inactive (N-Fold <2))	0 (ThT-inactive (N-Fold <2))	–	0 (ThT-inactive (N-Fold <2))	–	0	0	0	0	0	0	47.9%	47.87	0 (ThT-inactive (N-Fold <2))	0	–	Rel. ThT [1]: 1.2; CR / % [3, 11]: 48%
CKAKAQANMWQ	0 (ThT-inactive (N-Fold <2))	0 (ThT-inactive (N-Fold <2))	0 (ThT-inactive (N-Fold <2))	0 (ThT-inactive (N-Fold <2))	0 (ThT-inactive (N-Fold <2))	–	0 (ThT-inactive (N-Fold <2))	–	0	0	0	0	0	0	92.5%	92.45	0 (ThT-inactive (N-Fold <2))	0	–	Rel. ThT [1]: 1.9; CR / % [3, 11]: 92%
CKFKFQFW	0 (ThT-inactive (N-Fold <2))	0 (ThT-inactive (N-Fold <2))	–	–	0 (ThT-inactive (N-Fold <2))	–	0 (ThT-inactive (N-Fold <2))	1	1	–	–	1	1	1	98.7%	98.71	0 (ThT-inactive (N-Fold <2))	–	1	–
CKFKQFF	0 (ThT-inactive (N-Fold <2))	0 (ThT-inactive (N-Fold <2))	0 (ThT-inactive (N-Fold <2))	0 (ThT-inactive (N-Fold <2))	0 (ThT-inactive (N-Fold <2))	–	0 (ThT-inactive (N-Fold <2))	–	0	0	0	0	0	0	90%	90.05	0 (ThT-inactive (N-Fold <2))	0	–	–
CKFKQFFNMWQ	1 (ThT. Cat is 1, if Rel. ThT >2)	1 (ThT. Cat is 1, if Rel. ThT >2)	–	–	1 (ThT. Cat is 1, if Rel. ThT >2)	–	1 (ThT. Cat is 1, if Rel. ThT >2)	–	1	–	–	1	1	1	98.7%	98.72	1 (ThT. Cat is 1, if Rel. ThT >2)	1	1	–
CKIKIQI	1 (ThT. Cat is 1, if Rel. ThT >2)	1 (ThT. Cat is 1, if Rel. ThT >2)	–	–	1 (ThT. Cat is 1, if Rel. ThT >2)	1 (ThT. Cat is 1, if Rel. ThT >2)	1 (ThT. Cat is 1, if Rel. ThT >2)	1	1	–	–	1	1	1	54%	54	–	–	1	–
CKIKIQINM	1 (ThT. Cat is 1, if Rel. ThT >2)	1 (ThT. Cat is 1, if Rel. ThT >2)	–	–	1 (ThT. Cat is 1, if Rel. ThT >2)	1 (ThT. Cat is 1, if Rel. ThT >2)	1 (ThT. Cat is 1, if Rel. ThT >2)	1	1	–	–	1	1	1	75.5%	75.5	–	–	1	–
CKIKIQIRGD	0 (ThT-inactive (N-Fold <2))	0 (ThT-inactive (N-Fold <2))	–	–	0 (ThT-inactive (N-Fold <2))	0 (ThT-inactive (N-Fold <2))	0 (ThT-inactive (N-Fold <2))	1	1	–	–	1	1	1	91%	91	–	–	1	–
